1 molecule from patent publication US8959984B2, “Proteome-wide quantification of small molecule binding to cellular target proteins” (priority 2007, dated 2015) can be followed below.

Holding throughout (test): binding to VI16742 beads (HeLa lysate, SILAC MS)
The target of assay [1] is T1, CRK7 (CRKRS, IPI00868781) (Homo sapiens, UniProt Q9NYV4).
T1 construct: endogenous in cells; host or cells: HeLa S3 cell lysate
In short, it runs like this: (§1)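 A broadly selective pyrido[2,3-d]pyrimidine kinase inhibitor was coupled to resin and used as an affinity bait for chemical proteomic profiling.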

The target of the next assay is T2, MAP2K4 (IPI00789335) (Homo sapiens, UniProt P45985).
T2 construct: endogenous in cells; host or cells: HeLa S3
T2 sequence (P45985 1-399): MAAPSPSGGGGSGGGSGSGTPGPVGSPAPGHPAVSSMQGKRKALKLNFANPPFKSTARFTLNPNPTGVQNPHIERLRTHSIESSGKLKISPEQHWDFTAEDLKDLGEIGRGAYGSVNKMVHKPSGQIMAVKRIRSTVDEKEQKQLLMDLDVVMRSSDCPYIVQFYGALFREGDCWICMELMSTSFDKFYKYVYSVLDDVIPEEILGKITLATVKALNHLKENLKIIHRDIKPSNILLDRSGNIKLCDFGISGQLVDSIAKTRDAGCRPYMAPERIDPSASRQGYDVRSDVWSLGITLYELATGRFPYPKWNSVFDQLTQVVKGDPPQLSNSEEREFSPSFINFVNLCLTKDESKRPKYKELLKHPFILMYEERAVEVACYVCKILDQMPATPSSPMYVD
In short, it runs like this:
as §1

Assay [2] concerns the target T3, TAO1 (TAOK1, IPI00002232) (Homo sapiens, UniProt Q7L7X3).
T3 construct: endogenous in cells; host or cells: HeLa S3
T3 sequence (Q7L7X3 1-1001): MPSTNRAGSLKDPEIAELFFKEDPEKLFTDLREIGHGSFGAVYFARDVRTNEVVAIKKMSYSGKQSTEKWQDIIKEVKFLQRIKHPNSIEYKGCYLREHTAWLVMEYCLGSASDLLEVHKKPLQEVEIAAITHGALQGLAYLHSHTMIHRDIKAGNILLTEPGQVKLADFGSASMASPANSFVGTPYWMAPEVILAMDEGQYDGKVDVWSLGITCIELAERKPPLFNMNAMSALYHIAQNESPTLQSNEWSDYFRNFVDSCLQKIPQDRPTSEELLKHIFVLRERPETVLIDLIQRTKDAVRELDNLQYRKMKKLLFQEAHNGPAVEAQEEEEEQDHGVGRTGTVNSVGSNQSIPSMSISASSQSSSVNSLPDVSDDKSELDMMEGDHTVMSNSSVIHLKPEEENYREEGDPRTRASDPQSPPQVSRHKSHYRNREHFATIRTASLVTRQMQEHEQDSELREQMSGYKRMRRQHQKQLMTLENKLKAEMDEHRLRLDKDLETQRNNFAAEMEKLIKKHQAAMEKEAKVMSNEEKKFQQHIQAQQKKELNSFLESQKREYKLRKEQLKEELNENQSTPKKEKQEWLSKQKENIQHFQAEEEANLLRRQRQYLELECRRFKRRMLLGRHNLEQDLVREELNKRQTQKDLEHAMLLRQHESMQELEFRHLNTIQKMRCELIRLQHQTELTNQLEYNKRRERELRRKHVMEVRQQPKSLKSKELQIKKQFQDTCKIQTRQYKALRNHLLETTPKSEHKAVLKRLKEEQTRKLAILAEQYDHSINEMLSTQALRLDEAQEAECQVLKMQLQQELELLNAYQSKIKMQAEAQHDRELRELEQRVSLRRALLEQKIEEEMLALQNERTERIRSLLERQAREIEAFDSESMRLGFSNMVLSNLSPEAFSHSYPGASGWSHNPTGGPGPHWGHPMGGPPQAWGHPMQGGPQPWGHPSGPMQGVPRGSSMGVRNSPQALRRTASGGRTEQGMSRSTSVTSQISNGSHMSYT
The procedure, abridged: as §1

A further assay addresses T4, APRT (IPI00218693) (Homo sapiens, UniProt P07741).
T4 construct: endogenous in cells; host or cells: HeLa S3
T4 sequence (P07741 1-180): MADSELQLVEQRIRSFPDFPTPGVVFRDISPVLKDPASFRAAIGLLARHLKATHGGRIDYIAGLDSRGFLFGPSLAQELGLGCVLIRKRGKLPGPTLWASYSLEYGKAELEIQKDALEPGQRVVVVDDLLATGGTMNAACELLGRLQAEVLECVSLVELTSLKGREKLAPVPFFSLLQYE
The procedure, abridged:
as §1

Setting [3] is: control beads vs first incubation.

T1 sequence (Q9NYV4 whole entry): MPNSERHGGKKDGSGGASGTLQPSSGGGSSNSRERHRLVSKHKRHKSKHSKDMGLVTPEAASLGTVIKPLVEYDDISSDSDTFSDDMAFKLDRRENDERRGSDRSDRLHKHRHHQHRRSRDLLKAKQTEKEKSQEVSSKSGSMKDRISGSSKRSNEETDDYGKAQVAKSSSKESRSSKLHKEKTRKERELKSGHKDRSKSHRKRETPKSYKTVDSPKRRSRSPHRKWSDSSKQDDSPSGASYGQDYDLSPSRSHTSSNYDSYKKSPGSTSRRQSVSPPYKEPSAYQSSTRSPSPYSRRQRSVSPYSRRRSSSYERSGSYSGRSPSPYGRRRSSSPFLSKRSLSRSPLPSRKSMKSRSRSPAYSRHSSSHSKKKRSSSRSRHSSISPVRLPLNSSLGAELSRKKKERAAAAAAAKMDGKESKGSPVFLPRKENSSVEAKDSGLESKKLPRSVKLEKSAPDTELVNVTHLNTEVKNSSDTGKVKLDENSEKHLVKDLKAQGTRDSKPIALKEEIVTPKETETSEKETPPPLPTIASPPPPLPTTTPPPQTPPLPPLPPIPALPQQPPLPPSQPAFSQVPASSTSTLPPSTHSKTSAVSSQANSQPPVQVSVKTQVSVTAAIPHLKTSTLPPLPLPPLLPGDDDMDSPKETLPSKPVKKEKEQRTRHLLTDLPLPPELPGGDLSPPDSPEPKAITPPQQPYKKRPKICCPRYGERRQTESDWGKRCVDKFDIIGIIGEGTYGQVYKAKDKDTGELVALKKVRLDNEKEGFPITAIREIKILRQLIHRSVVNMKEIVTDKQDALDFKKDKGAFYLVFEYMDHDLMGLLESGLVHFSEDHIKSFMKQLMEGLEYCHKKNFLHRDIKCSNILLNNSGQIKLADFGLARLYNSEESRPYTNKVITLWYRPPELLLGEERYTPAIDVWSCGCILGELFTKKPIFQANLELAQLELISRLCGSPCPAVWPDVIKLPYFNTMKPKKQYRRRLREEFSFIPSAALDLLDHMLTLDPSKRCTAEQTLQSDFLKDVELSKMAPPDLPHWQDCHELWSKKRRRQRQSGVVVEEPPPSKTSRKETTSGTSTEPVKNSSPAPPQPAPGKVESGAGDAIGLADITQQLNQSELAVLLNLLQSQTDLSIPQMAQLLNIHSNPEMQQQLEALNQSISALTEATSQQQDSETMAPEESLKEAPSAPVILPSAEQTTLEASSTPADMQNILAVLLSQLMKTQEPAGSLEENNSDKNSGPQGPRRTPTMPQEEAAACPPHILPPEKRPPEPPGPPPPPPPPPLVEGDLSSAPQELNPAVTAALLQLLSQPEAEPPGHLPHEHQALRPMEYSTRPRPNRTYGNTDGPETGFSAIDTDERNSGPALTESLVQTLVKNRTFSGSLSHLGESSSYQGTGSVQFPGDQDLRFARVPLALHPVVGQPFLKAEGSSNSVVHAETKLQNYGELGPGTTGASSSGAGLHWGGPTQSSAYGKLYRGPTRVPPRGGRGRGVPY

`CC(C)n1c(=O)ccc2cnc(Nc3ccc(OCCN)cc3)nc21` [V16742]: the “r (3 MG/1 MG LYSATE)” value in assay [1] (3 mg vs 1 mg lysate) is given as 3.21; in assay [2] (3 mg vs 1 mg lysate), 2.64; at APRT (IPI00218693) (3 mg vs 1 mg lysate), 1.04. In addition, the figures for the “r (5 h/2.5 h INC. TIME)” value (in assay [1] (5 h vs 2.5 h incubation time); in assay [2] (5 h vs 2.5 h incubation time); on APRT (IPI00218693) (5 h vs 2.5 h incubation time)) were 1.04, 1.02 and 1.40, respectively. The “rAVERAGE (CTRL/1 INC)” value is 0.07 in assay [1] (setting [3]), 0.06 on MAP2K4 (IPI00789335) (setting [3]), 0.06 in assay [2] (setting [3]) and 0.05 on APRT (IPI00218693) (setting [3]). Further, the inhibition constant (Ki) in assay [1] (immobilized VI16742) worked out at 90.7 µM; on MAP2K4 (IPI00789335) (immobilized VI16742), 127 µM; in assay [2] (immobilized VI16742) it was 162 µM; on APRT (IPI00218693) (immobilized VI16742) it was 223 µM. The “rAVERAGE (2 INC/1 INC)” value is 0.64 in assay [1] (second vs first incubation), 0.71 at MAP2K4 (IPI00789335) (second vs first incubation), 0.76 in assay [2] (second vs first incubation) and 0.81 on APRT (IPI00218693) (second vs first incubation).

The Ki is a dissociation constant, usually derived from enzyme kinetics or from competition with a known ligand. Low readings indicate a stronger hold on the target, high ones a looser hold on the target.
